Data taken from patent publication US20110092547A1 (priority 2007, published 2011).

biological target: T1, human DGAT1 (Homo sapiens, UniProt O75907); assay: Human enzyme assay, further developed assay (14C oleoyl CoA, 96 well plate); type: biochemical; details: human DGAT1 expressed in insect cell (sf9) membranes
T1 construct: made in house; host or cells: Sf9 insect cells (recombinant baculovirus); membrane fraction
T1 sequence (O75907 1-488): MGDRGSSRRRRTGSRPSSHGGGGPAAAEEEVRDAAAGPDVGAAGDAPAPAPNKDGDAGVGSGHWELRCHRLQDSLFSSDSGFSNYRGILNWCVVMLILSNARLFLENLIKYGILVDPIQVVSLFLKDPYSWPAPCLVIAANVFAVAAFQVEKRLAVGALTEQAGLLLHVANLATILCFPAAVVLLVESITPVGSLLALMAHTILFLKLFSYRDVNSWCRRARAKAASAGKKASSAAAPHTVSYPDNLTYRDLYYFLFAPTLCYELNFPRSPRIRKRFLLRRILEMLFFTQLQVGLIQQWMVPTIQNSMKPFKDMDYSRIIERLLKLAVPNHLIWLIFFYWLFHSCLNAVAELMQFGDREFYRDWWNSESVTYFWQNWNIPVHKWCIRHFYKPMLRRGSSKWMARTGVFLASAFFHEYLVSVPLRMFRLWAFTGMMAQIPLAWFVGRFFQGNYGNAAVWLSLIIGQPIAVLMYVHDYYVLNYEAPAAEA
Experimental: The in vitro assay to identify DGAT1 inhibitors uses human DGAT1 expressed in insect cell membranes as the enzyme source (Proc. Natl. Acad. Sci. 1998, 95, 13018-13023). Briefly, sf9 cells were infected with recombinant baculovirus containing human DGAT1 coding sequences and harvested after 48 h. Cells were lysed by sonication and membranes isolated by centrifuging at 28000 rpm for 1 h at 4° C. on a 41% sucrose gradient. The membrane fraction at the interphase was collected, washed, and stored in liquid nitrogen.
In a further developed assay, DGAT1 activity was assayed by a modification of the method described by Coleman (Methods in Enzymology 1992, 209, 98-102). Compound at 0.00003-10 μM (final cone) was incubated with 25 μg/ml (final cone) membrane protein, 5 mM MgCl2, and 100 μM 1,2 dioleoyl-sn-glycerol in a total assay volume of 200 μl in a 96 well plate. The reaction was started by adding ^14C oleoyl coenzyme A (30 μM final concentration) and incubated at room temperature for 30 minutes. The reaction was stopped by adding 300 μl 2-propanol:heptane 7:1. Radioactive triolein product was separated into the organic phase by adding 200 μl heptane and 200 μl 0.1 M carbonate buffer pH 9.5. DGAT1 activity was quantified by counting aliquots of the upper heptane layer by liquid scintillography.

SMILES	IC50
COc1nc(O[C@H]2CC[C@@H](C(=O)O)CC2)ccc1NC(=O)c1nnc(Nc2ccc(F)c(F)c2)o1 [Example 51, (1s,4s)-4-(5-(5-(3,4-Difluorophenylamino)-1,3,4-oxadiazole-2-carboxamido)-6-methoxypyridin-2-yloxy)cyclohexanecarboxylic acid]	29 nM
O=C(O)c1ccc(Oc2ccc(NC(=O)c3nnc(Nc4ccc(F)c(Cl)c4)o3)cn2)cc1 [Example 39, 4-(5-(5-(3-Chloro-4-fluorophenylamino)-1,3,4-oxadiazole-2-carboxamido)pyridin-2-yloxy)benzoic acid]	7.5 nM
C[C@]1(C(=O)O)CC[C@H](Oc2ccc(NC(=O)c3nnc(Nc4ccc(F)c(F)c4)o3)cn2)CC1 [Example 2, (1r,4r)-4-(5-(5-(3,4-difluorophenylamino)-1,3,4-oxadiazole-2-carboxamido)pyridin-2-yloxy)-1-methylcyclohexanecarboxylic acid]	494 nM
Cc1ccc(Nc2nnc(C(=O)Nc3ccc(O[C@H]4CC[C@@H](C(=O)O)CC4)nc3)o2)cc1Cl [Example 15, (1s,4s)-4-(5-(5-(3-chloro-4-methylphenylamino)-1,3,4-oxadiazole-2-carboxamido)pyridin-2-yloxy)cyclohexanecarboxylic acid]	8 nM
O=C(Nc1ccc(O[C@H]2CC[C@@H](C(=O)O)CC2)nc1F)c1nnc(Nc2cc(F)c(F)cc2F)o1 [Example 70, (1s,4s)-4-(6-Fluoro-5-(5-(2,4,5-trifluorophenylamino)-1,3,4-oxadiazole-2-carboxamido)pyridin-2-yloxy)cyclohexanecarboxylic acid]	4.1 nM
O=C(Nc1ccc(O[C@H]2CC[C@@H](C(=O)O)CC2)nc1)c1nnc(Nc2ccc(Cl)cc2Cl)o1 [Example 12, (1s,4s)-4-(5-(5-(2,4-dichlorophenylamino)-1,3,4-oxadiazole-2-carboxamido)pyridin-2-yloxy)cyclohexanecarboxylic acid]	7.4 nM
O=C(Nc1cnc(O[C@H]2CC[C@@H](C(=O)O)CC2)c(F)c1)c1nnc(Nc2ccc(F)c(F)c2)o1 [Example 60, (1s,4s)-4-(5-(5-(3,4-Difluorophenylamino)-1,3,4-oxadiazole-2-carboxamido)-3-fluoropyridin-2-yloxy)cyclohexanecarboxylic acid]	14 nM
O=C(Nc1ccc(O[C@H]2C[C@@H](C(=O)O)C2)nc1)c1nnc(Nc2ccc(F)c(F)c2)o1 [Example 65, cis-3-(5-(5-(3,4-difluorophenylamino)-1,3,4-oxadiazole-2-carboxamido)pyridin-2-yloxy)cyclobutanecarboxylic acid]	26 nM
O=C(O)c1ccc(Oc2ccc(NC(=O)c3nnc(Nc4ccc(F)c(F)c4)o3)cn2)cc1 [Example 38, 4-(5-(5-(3,4-Difluorophenylamino)-1,3,4-oxadiazole-2-carboxamido)-Pyridin-2-yloxy)benzoic acid]	5.4 nM
CC1(C(=O)O)CCC(Oc2ccc(NC(=O)c3nnc(Nc4ccc(Cl)cc4Cl)o3)cn2)CC1 (stereo not drawn) [Example 67, 4-(5-((5-((2,4-dichlorophenyl)amino)-1,3,4-oxadiazole-2-carbonyl)amino)pyridin-2-yl)oxy-1-methylcyclohexane-1-carboxylic acid]	7.2 nM
O=C(Nc1cnc(O[C@H]2CC[C@@H](C(=O)O)CC2)c(Cl)c1)c1nnc(Nc2ccc(Cl)cc2Cl)o1 [Example 46, (1s,4s)-4-(3-Chloro-5-(5-(2,4-dichlorophenylamino)-1,3,4-oxadiazole-2-carboxamido)pyridin-2-yloxy)cyclohexanecarboxylic acid]	22 nM
O=C(Nc1cnc(O[C@H]2CC[C@@H](C(=O)O)CC2)c(Cl)c1)c1nnc(Nc2ccc(F)c(Cl)c2)o1 [Example 48, (1s,4s)-4-(3-Chloro-5-(5-(3-chloro-4-fluorophenylamino)-1,3,4-oxadiazole-2-carboxamido)pyridin-2-yloxy)cyclohexanecarboxylic acid]	14 nM
Cc1ccc(Nc2nnc(C(=O)Nc3ccc(O[C@H]4CC[C@H](C(=O)O)CC4)nc3)o2)cc1Cl [Example 26, (1r,4r)-4-(5-(5-(3-chloro-4-methyl-phenylamino)-1,3,4-oxadiazole-2-carboxamido)pyridin-2-yloxy)cyclo-hexane-carboxylic acid]	13 nM
Cc1cc(OC2CCC(C(=O)O)CC2)ncc1NC(=O)c1nnc(Nc2ccc(Cl)c(F)c2)o1 (stereo not drawn) [Example 42, (1s,4s)-4-(5-(5-(4 - Chloro-3-fluorophenylamino)-1,3,4-oxadiazole-2-carboxamido)-4-methylpyridin-2-yloxy) cyclohexanecarboxylic acid]	1.1 nM
O=C(Nc1cnc(O[C@H]2CC[C@@H](C(=O)O)CC2)cc1F)c1nnc(Nc2cc(F)c(F)cc2F)o1 [Example 58, (1s,4s)-4-(4-Fluoro-5-(5-(2,4,5-trifluorophenylamino)-1,3,4-oxadiazole-2-carboxamido)pyridin-2-yloxy)cyclohexanecarboxylic acid]	6.1 nM
O=C(Nc1ccc(OC2CCC(C(=O)O)CC2)nc1)c1nnc(Nc2ccc(F)cc2)o1 (stereo not drawn) [Example 20, 4-4-({5-[({5-[(4-fluorophenyl)amino]-1,3,4-oxadiazol-2-yl}-carbonyl)amino]pyridin-2-yl}oxy)cyclohexanecarboxylic acid]	9.8 nM
O=C(Nc1ccc(O[C@H]2CC[C@H](C(=O)O)CC2)nc1)c1nnc(Nc2cc(F)c(F)cc2F)o1 [Example 22, (1r,4r)-4-(5-(5-(2,4,5-trifluorophenylamino)-1,3,4-oxadiazole-2-carboxamido)pyridin-2-yloxy)cyclohexanecarboxylic acid]	36 nM
O=C(Nc1ccc(O[C@H]2CC[C@@H](C(=O)O)CC2)nc1)c1nnc(Nc2cc(C(F)(F)F)c(F)cc2F)o1 [Example 5, (1s,4s)-4-(5-(5-(2,4-difluoro-5-(trifluoromethyl)phenylamino)-1,3,4-oxadiazole-2-carboxamido)pyridin-2-yloxy)cyclohexanecarboxylic acid]	31 nM
O=C(Nc1ccc(O[C@H]2CC[C@@H](C(=O)O)CC2)nc1)c1nnc(Nc2cccc(Cl)c2)o1 [Example 7, (1s,4s)-4-(5-(5-(3-chlorophenylamino)-1,3,4-oxadiazole-2-carboxamido)pyridin-2-yloxy)cyclohexanecarboxylic acid]	10 nM
COC[C@]1(C(=O)O)CC[C@H](Oc2ccc(NC(=O)c3nnc(Nc4ccc(F)c(F)c4)o3)cn2)CC1 [Example 4, (1r,4r)-4-(5-(5-(3,4-Difluorophenylamino)-1,3,4-oxadiazole-2-carboxamido)pyridin-2-yloxy)-1-(methoxymethyl)cyclohexanecarboxylic acid]	15 nM
CC(C)(C)c1ccc(Nc2nnc(C(=O)Nc3ccc(O[C@H]4CC[C@@H](C(=O)O)CC4)nc3)o2)cc1 [Example 9, (1s,4s)-4-(5-(5-(4-tert-butylphenylamino)-1,3,4-oxadiazole-2-carboxamido)pyridin-2-yloxy)cyclohexanecarboxylic acid]	55 nM
O=C(Nc1ccc(O[C@H]2CC[C@@H](C(=O)O)CC2)nc1)c1nnc(Nc2cccc(Cl)c2Cl)o1 [Example 14, (1s,4s)-4-(5-(5-(2,3-dichlorophenylamino)-1,3,4-oxadiazole-2-carboxamido)pyridin-2-yloxy)cyclohexanecarboxylic acid]	11 nM
CC1(C(=O)O)CCC(Oc2ccc(NC(=O)c3nnc(Nc4ccc(F)c(Cl)c4)o3)cn2)CC1 (mixture of isomers) [Example 69, 4-(5-(5-(3-Chloro-4-fluorophenylamino)-1,3,4-oxadiazole-2-carboxamido)pyridin-2-yloxy)-1-methylcyclohexanecarboxylic acid]	4.3 nM
O=C(O)C[C@H]1CC[C@@H](Oc2ccc(NC(=O)c3nnc(Nc4ccc(F)c(Cl)c4)o3)cn2)CC1 [Example 53, 2-((1s,4s)-4-(5-(5-(3-Chloro-4-fluorophenylamino)-1,3,4-oxadiazole-2-carboxamido)pyridin-2-yloxy)cyclohexyl)acetic acid]	3.1 nM
Cc1cc(NC(=O)c2nnc(Nc3cccc(Cl)c3)o2)cnc1O[C@H]1CC[C@@H](C(=O)O)CC1 [Example 18, (1s,4s)-4-(5-(5-(3-chlorophenylamino)-1,3,4-oxadiazole-2-carboxamido)-3-methylpyridin-2-yloxy)cyclohexanecarboxylic acid]	21 nM
O=C(Nc1ccc(O[C@H]2CC[C@H](C(=O)O)CC2)nc1)c1nnc(Nc2cc(C(F)(F)F)c(F)cc2F)o1 [Example 35]	87 nM
COc1cc(O[C@H]2CC[C@@H](C(=O)O)CC2)ncc1NC(=O)c1nnc(Nc2ccc(Br)cc2Cl)o1 [Example 44]	54 nM
